According to the supplement of paper PMC10307832:

What was measured:
Experiment in all cases: relative viability (nuclei count vs DMSO), 5 days (fraction); higher = more cells survive
[1] = compound: O=c1ncccn1[C@@H]1O[C@H](CO)[C@@H](O)[C@H]1O [Zebularine] + Cc1cc(Nc2cc(N3CCN(C)CC3)nc(Sc3ccc(NC(=O)C4CC4)cc3)n2)n[nH]1 [Tozasertib] (partner 0.1 µM)
Summary of the method: (§1)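 A single step with final 0.05% Triton X-100, 1% formaldehyde and 1 ug/ml Hoechst fixed the cells and stained nuclei 5 days after treatment. Lung cancer cell lines in 1536-well plates had been treated by pin tool the day after seeding with one drug alone or a fixed anchor-drug dose plus five library-drug doses (not always all listed) in √10 steps, and nuclei were counted on 4× images. Relative viability is the ratio of nuclei in treated wells to nuclei in vehicle wells, taken as the median of duplicate plates.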

[2] = compound: CC(C)CCN1c2nc(Nc3cc(F)c(O)c(F)c3)ncc2N(C)C(=O)C1C [BI-D1870] + CS(=O)(=O)CCNCc1ccc(-c2ccc3ncnc(Nc4ccc(OCc5cccc(F)c5)c(Cl)c4)c3c2)o1 [Lapatinib] (partner 2 µM)
Summary of the method: as §1

[3] = compound: O=c1ncccn1[C@@H]1O[C@H](CO)[C@@H](O)[C@H]1O [Zebularine] + Nc1ncn([C@H]2C[C@H](O)[C@@H](CO)O2)c(=O)n1 [Decitabine] (partner 2 µM)
Summary of the method: as §1

[4] = compound: CC(C)CCN1c2nc(Nc3cc(F)c(O)c(F)c3)ncc2N(C)C(=O)C1C [BI-D1870] + O=C(c1cc(Cc2n[nH]c(=O)c3ccccc23)ccc1F)N1CCN(C(=O)C2CC2)CC1 [Olaparib] (partner 8 µM)
Summary of the method: as §1

Row | Cell Line | relative viability ([1]; first compound 1 µM) | relative viability ([1]; first compound 3.162 µM) | relative viability ([1]; first compound 10 µM) | relative viability ([1]; first compound 31.62 µM) | relative viability ([1]; first compound 100 µM) | relative viability ([2]; first compound 0.04 µM) | relative viability ([2]; first compound 0.1265 µM) | relative viability ([2]; first compound 0.4 µM) | relative viability ([2]; first compound 1.265 µM) | relative viability ([2]; first compound 4 µM) | relative viability ([3]; first compound 1 µM) | relative viability ([3]; first compound 3.162 µM) | relative viability ([3]; first compound 10 µM) | relative viability ([3]; first compound 31.62 µM) | relative viability ([3]; first compound 100 µM) | relative viability ([4]; first compound 0.04 µM) | relative viability ([4]; first compound 0.1265 µM) | relative viability ([4]; first compound 0.4 µM) | relative viability ([4]; first compound 1.265 µM) | relative viability ([4]; first compound 4 µM)
1 | 201T | 1.03 | 0.938 | 0.647 | 0.977 | 0.595 | 1.01 | 0.97 | 1.05 | 1.02 | 1.03 | 0.872 | 0.883 | 0.76 | 0.894 | 0.844 | 0.901 | 0.806 | 0.809 | 0.851 | 0.856
2 | A549 | – | – | – | – | – | 1.16 | 0.875 | 1.06 | 0.908 | 0.992 | 0.219 | 0.251 | – | 0.267 | 0.185 | 0.382 | 0.382 | 0.268 | 0.379 | 0.399
3 | A-427 | 0.201 | 0.194 | 0.222 | 0.155 | 0.152 | 1.05 | 0.981 | 0.957 | 1.21 | 1.09 | 0.693 | 0.534 | 0.524 | 0.455 | 0.302 | 0.71 | 0.647 | 0.659 | 0.705 | 0.551
4 | ABC-1 | 0.193 | 0.196 | 0.164 | 0.189 | 0.148 | 1.19 | 0.952 | 1.05 | 1.28 | 1.02 | 1.13 | 0.68 | 0.888 | 0.577 | 0.495 | 0.751 | 0.782 | 1 | 0.613 | 0.666
5 | BEN | 0.612 | 0.563 | 0.379 | 0.354 | 0.43 | 0.713 | 0.728 | 0.784 | 0.749 | 0.621 | 0.821 | 0.686 | 0.545 | 0.495 | 0.371 | 1.23 | 1 | 1.02 | 1.11 | 0.806
6 | CAL-12T | 0.379 | 0.369 | 0.241 | 0.379 | 0.247 | 0.799 | 0.672 | 0.664 | 1.03 | 0.539 | – | – | – | – | – | 0.692 | 0.701 | 0.672 | 0.482 | 0.372
7 | COR-L23 | 0.216 | 0.263 | 0.186 | 0.181 | 0.119 | 1.07 | 0.929 | 0.992 | 0.798 | 0.982 | 0.407 | 0.368 | 0.408 | 0.363 | 0.202 | 0.315 | 0.325 | 0.327 | 0.35 | 0.245
8 | COR-L 105 | 0.316 | 0.285 | 0.345 | 0.367 | 0.319 | 0.387 | 0.363 | 0.355 | 0.407 | 0.335 | 0.642 | 0.696 | 0.523 | 0.648 | 0.647 | 0.79 | 0.533 | 0.713 | 0.687 | 0.678
9 | Calu-6 | – | – | – | – | – | 1.07 | 0.977 | 1.09 | 0.931 | 0.868 | – | – | – | – | – | 0.658 | 0.534 | 0.479 | 0.359 | 0.254
10 | ChaGo-K-1 | 0.22 | 0.208 | 0.211 | 0.172 | 0.195 | – | – | – | – | – | 0.534 | 0.566 | 0.432 | 0.232 | 0.199 | 0.451 | 0.379 | 0.414 | 0.412 | 0.303
11 | EBC-1 | – | – | – | – | – | 0.195 | 0.19 | 0.205 | 0.188 | 0.158 | – | – | – | – | – | 0.738 | 0.581 | 0.574 | 0.337 | 0.183
12 | EKVX | 0.44 | 0.409 | 0.3 | 0.374 | 0.335 | 0.236 | 0.18 | 0.195 | 0.223 | 0.2 | 0.576 | 0.378 | – | 0.304 | 0.339 | 0.916 | 0.789 | 0.805 | 0.969 | 0.721
13 | EMC-BAC-2 | 0.326 | 0.313 | 0.266 | 0.28 | 0.313 | 0.823 | 0.887 | 0.815 | 0.951 | 0.899 | 1.03 | 1 | 0.772 | 1.03 | 1.01 | 0.513 | 0.451 | 0.453 | 0.512 | 0.455
14 | EPLC-272H | 0.222 | 0.179 | 0.156 | 0.317 | 0.256 | 0.878 | 0.879 | 0.734 | 1.01 | 0.852 | 0.404 | – | 0.398 | 0.364 | 0.371 | 0.692 | 0.804 | 0.692 | 0.381 | 0.204
15 | H3255 | 0.542 | 0.61 | 0.271 | 0.106 | 0.627 | 0.221 | 0.266 | 0.258 | 0.296 | 0.244 | 0.687 | 0.615 | – | 0.65 | 0.665 | 0.591 | 0.526 | 0.59 | 0.602 | 0.526
16 | HARA | 0.105 | – | – | 0.0886 | 0.0769 | 0.973 | 0.722 | 0.842 | 0.998 | 0.74 | 0.595 | 0.603 | 0.433 | 0.554 | 0.459 | 0.795 | 0.826 | 0.86 | 0.868 | 0.972
17 | HCC-15 | 0.308 | 0.414 | 0.339 | 0.386 | 0.179 | 0.94 | 0.832 | 0.774 | 0.795 | 0.592 | 0.683 | 0.575 | 0.36 | 0.684 | 0.487 | 0.819 | 0.761 | 0.713 | 0.694 | 0.404
18 | HCC-44 | 1.14 | 1.05 | 0.82 | 0.418 | 0.361 | 1.05 | 1.04 | 1.02 | 0.961 | 1.1 | 0.981 | 0.929 | 0.946 | 1.03 | 0.585 | 1 | 0.954 | 0.98 | 1.05 | 0.976
